Reference: patent US20230416205A1, “COMPOUNDS, COMPOSITIONS, AND METHODS” (Denali Therapeutics Inc, priority 2020, published 2023)
Where two headings read alike, the source gives them in different places.

Tested on: NLRP3
Assay: IL-1β secretion assay in PMA-differentiated, LPS/nigericin-stimulated THP-1 cells (384-well, ELISA read-out)
Type: cell-based, human
Settings: Homo sapiens
How it was run: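 THP-1 cells differentiated with PMA (5 ng/mL, 40 h), primed in serum-free medium with 25 ng/mL LPS for 2 h, treated with compounds 1 h (0.5% DMSO), then stimulated with nigericin for 2 h at 37 °C. Supernatant IL-1β measured by ELISA; responses normalized to LPS+5 μM nigericin and LPS-only controls.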

[1] = THP-1, IL-1β secretion, PMA-differentiated THP-1 cells, LPS then nigericin stimulation, ELISA read at 450 nm, read-out: Activity
[2] = THP-1, Table 4, IL-1β secretion, LPS/nigericin-stimulated THP-1 cells, read-out: IC50

SMILES | IC50 [1] [µM] | IC50 [2] [µM]
O=C(CN1CC2(CC2)c2cc(Br)ccc2C1=S)Nc1ncc(F)cn1 [Example 102, 2-(6-bromo-1-sulfanylidenespiro[3H-isoquinoline-4,1′-cyclopropane]-2-yl)-N-(5-fluoropyrimidin-2-yl)acetamide] | < 10 | 0.169
O=C(CN1CC2(CC2)c2cc(Br)ccc2C1=O)Nc1ncc(-c2ccccn2)cn1 [Example 104, 2-(6-bromo-1-oxospiro[3H-isoquinoline-4,1′-cyclopropane]-2-yl)-N-(5-pyridin-2-ylpyrimidin-2-yl)acetamide] | < 10 | 1.87
N#Cc1cnc(NC(=O)CN2CC3(CC3)c3c(ccc(Br)c3F)C2=O)nc1 [Example 105, 2-(6-bromo-5-fluoro-1-oxospiro[3H-isoquinoline-4,1′-cyclopropane]-2-yl)-N-(5-cyanopyrimidin-2-yl)acetamide] | < 10 | 0.119
N#Cc1cnc(NC(=O)CN2CC3(CC3)c3c(ccc(Br)c3F)C2=O)c(F)c1 [Example 106, 2-(6-bromo-5-fluoro-1-oxospiro[3H-isoquinoline-4,1′-cyclopropane]-2-yl)-N-(5-cyano-3-fluoropyridin-2-yl)acetamide] | < 10 | 0.156
N#Cc1ccnc(NC(=O)CN2CC3(CC3)c3cc(Br)ccc3C2=O)n1 [Example 107, 2-(6-bromo-1-oxospiro[3H-isoquinoline-4,1′-cyclopropane]-2-yl)-N-(4-cyanopyrimidin-2-yl)acetamide] | < 10 | 2.82
O=C(CN1CC2(CC2)c2c(ccc(I)c2F)C1=O)Nc1ncc(F)cn1 [Example 108, 2-(5-fluoro-6-iodo-1-oxospiro[3H-isoquinoline-4,1′-cyclopropane]-2-yl)-N-(5-fluoropyrimidin-2-yl)acetamide] | < 10 | 0.018
O=C(CN1C[C@]2(C[C@H]2F)c2cc(Br)ccc2C1=O)Nc1ncccn1 [Example 109] | < 10 | 0.036
O=C(CN1C[C@]2(C[C@H]2F)c2cc(Br)ccc2C1=O)Nc1ncc(Cl)cn1 [Example 110] | < 10 | 0.012
O=C(CN1CC2(CC2)c2cc(Br)ccc2C1=O)NC1CC(C(F)F)C1 (stereo not drawn) [Example 111, 2-(6-bromo-1-oxospiro[3H-isoquinoline-4,1′-cyclopropane]-2-yl)-N-[3-(difluoromethyl)cyclobutyl]acetamide] | < 10 | 2.42
O=C(CN1CC2(CC2)c2cc(Br)ccc2C1=O)NCC1(CC(F)F)CCC1 [Example 112, 2-(6-bromo-1-oxospiro[3H-isoquinoline-4,1′-cyclopropane]-2-yl)-N-[[1-(2,2-difluoroethyl)cyclobutyl]methyl]acetamide] | > 15 | 13
O=C(CN1CC2(CC2)c2cc(Br)ccc2C1=O)Nc1ccccc1OC(F)F [Example 113, 2-(6-bromo-1-oxospiro[3H-isoquinoline-4,1′-cyclopropane]-2-yl)-N-[2-(difluoromethoxy)phenyl]acetamide] | < 10 | 4.18
Cc1cccc(NC(=O)CN2CC3(CC3)c3cc(Br)ccc3C2=O)n1 [Example 114, 2-(6-bromo-1-oxospiro[3H-isoquinoline-4,1′-cyclopropane]-2-yl)-N-(6-methylpyridin-2-yl)acetamide] | < 10 | 1.99
Cc1noc(NC(=O)CN2CC3(CC3)c3cc(Br)ccc3C2=O)c1C [Example 115, 2-(6-bromo-1-oxospiro[3H-isoquinoline-4,1′-cyclopropane]-2-yl)-N-(3,4-dimethyl-1,2-oxazol-5-yl)acetamide] | > 15 | 15.4
O=C(CN1CC2(CC2)c2cc(Br)ccc2C1=O)Nc1cccc2nccn12 [Example 116, 2-(6-bromo-1-oxospiro[3H-isoquinoline-4,1′-cyclopropane]-2-yl)-N-imidazo[1,2-a]pyridin-5-ylacetamide] | < 10 | 4.16
O=C(CN1CC2(CC2)c2cc(Br)ccc2C1=O)NCC1COC1 [Example 117, 2-(6-bromo-1-oxospiro[3H-isoquinoline-4,1′-cyclopropane]-2-yl)-N-(oxetan-3-ylmethyl)acetamide] | > 15 | 19.8
O=C(CN1CC2(CC2)c2cc(Br)ccc2C1=O)NC1CS(=O)(=O)C1 [Example 118, 2-(6-bromo-1-oxospiro[3H-isoquinoline-4,1′-cyclopropane]-2-yl)-N-(1,1-dioxothietan-3-yl)acetamide] | > 15 | 22.4
O=C(CN1CC2(CC2)c2cc(Br)ccc2C1=O)NCc1ncco1 [Example 119, 2-(6-bromo-1-oxospiro[3H-isoquinoline-4,1′-cyclopropane]-2-yl)-N-(1,3-oxazol-2-ylmethyl)acetamide] | > 15 | 30.1

SMILES | IC50 [1] [µM] | IC50 [2] [µM]
Cn1ccnc1CNC(=O)CN1CC2(CC2)c2cc(Br)ccc2C1=O [Example 120, 2-(6-bromo-1-oxospiro[3H-isoquinoline-4,1′-cyclopropane]-2-yl)-N-[(1-methylimidazol-2-yl)methyl]acetamide] | > 15 | 24.8
O=C(CN1CC2(CC2)c2cc(Br)ccc2C1=O)NCCn1ccnc1 [Example 121, 2-(6-bromo-1-oxospiro[3H-isoquinoline-4,1′-cyclopropane]-2-yl)-N-(2-imidazol-1-ylethyl)acetamide] | 10 to 15 | 12.1
O=C(CN1CC2(CC2)c2cc(Br)ccc2C1=O)NCc1ccncc1 [Example 122, 2-(6-bromo-1-oxospiro[3H-isoquinoline-4,1′-cyclopropane]-2-yl)-N-(pyridin-4-ylmethyl)acetamide] | > 15 | 29.9
CN(Cc1cnn(C)c1)C(=O)CN1CC2(CC2)c2cc(Br)ccc2C1=O [Example 123, 2-(6-bromo-1-oxospiro[3H-isoquinoline-4,1′-cyclopropane]-2-yl)-N-methyl-N-[(1-methylpyrazol-4-yl)methyl]acetamide] | > 15 | 34.9
Cn1nccc1CNC(=O)CN1CC2(CC2)c2cc(Br)ccc2C1=O [Example 124, 2-(6-bromo-1-oxospiro[3H-isoquinoline-4,1′-cyclopropane]-2-yl)-N-[(2-methylpyrazol-3-yl)methyl]acetamide] | > 15 | 27.7
O=C(CN1CC2(CC2)c2cc(Br)ccc2C1=O)N1Cc2cccnc2C1 [Example 125, 6-bromo-2-[2-(5,7-dihydropyrrolo[3,4-b]pyridin-6-yl)-2-oxoethyl]spiro[3H-isoquinoline-4,1′-cyclopropane]-1-one] | > 15 | 26.7
Cn1nc(C2CC2)cc1NC(=O)CN1CC2(CC2)c2cc(Br)ccc2C1=O [Example 126, 2-(6-bromo-1-oxospiro[3H-isoquinoline-4,1′-cyclopropane]-2-yl)-N-(5-cyclopropyl-2-methylpyrazol-3-yl)acetamide] | > 15 | 15.4
O=C(CN1CC2(CC2)c2cc(Br)ccc2C1=O)Nc1ccccc1 [Example 127, 2-(6-bromo-1-oxospiro[3H-isoquinoline-4,1′-cyclopropane]-2-yl)-N-phenylacetamide] | < 10 | 1.67
O=C(CN1CC2(CC2)c2cc(Br)ccc2C1=O)NCCN1CCOCC1 [Example 128, 2-(6-bromo-1-oxospiro[3H-isoquinoline-4,1′-cyclopropane]-2-yl)-N-(2-morpholin-4-ylethyl)acetamide] | 10 to 15 | 12
O=C(CN1CC2(CC2)c2cc(Br)ccc2C1=O)NC1Cc2ccccc2C1 [Example 129, 2-(6-bromo-1-oxospiro[3H-isoquinoline-4,1′-cyclopropane]-2-yl)-N-(2,3-dihydro-1H-inden-2-yl)acetamide] | < 10 | 7.2
O=C(CN1CC2(CC2)c2cc(Br)ccc2C1=O)Nc1ccc2ncccc2c1 [Example 130, 2-(6-bromo-1-oxospiro[3H-isoquinoline-4,1′-cyclopropane]-2-yl)-N-quinolin-6-ylacetamide] | < 10 | 1.23
O=C(CN1CC2(CC2)c2cc(Br)ccc2C1=O)Nc1cnc2ccccc2c1 [Example 131, 2-(6-bromo-1-oxospiro[3H-isoquinoline-4,1′-cyclopropane]-2-yl)-N-quinolin-3-ylacetamide] | < 10 | 7.7
O=C(CN1CC2(CC2)c2cc(Br)ccc2C1=O)NCC(O)c1ccc(F)cc1 (stereo not drawn) [Example 132, 2-(6-bromo-1-oxospiro[3H-isoquinoline-4,1′-cyclopropane]-2-yl)-N-[2-(4-fluorophenyl)-2-hydroxyethyl]acetamide] | > 15 | 29.7
O=C(CN1CC2(CC2)c2cc(Br)ccc2C1=O)NCCC(F)(F)F [Example 133, 2-(6-bromo-1-oxospiro[3H-isoquinoline-4,1′-cyclopropane]-2-yl)-N-(3,3,3-trifluoropropyl)acetamide] | < 10 | 9.24
CC(C)(C#N)NC(=O)CN1CC2(CC2)c2cc(Br)ccc2C1=O [Example 134, 2-(6-bromo-1-oxospiro[3H-isoquinoline-4,1′-cyclopropane]-2-yl)-N-(2-cyanopropan-2-yl)acetamide] | > 15 | 
O=C(CN1CC2(CC2)c2cc(Br)ccc2C1=O)Nc1ccc2c(c1)CCO2 [Example 135, 2-(6-bromo-1-oxospiro[3H-isoquinoline-4,1′-cyclopropane]-2-yl)-N-(2,3-dihydro-1-benzofuran-5-yl)acetamide] | < 10 | 1.22
O=C(CN1CC2(CC2)c2cc(Br)ccc2C1=O)Nc1ccc2cnccc2c1 [Example 136, 2-(6-bromo-1-oxospiro[3H-isoquinoline-4,1′-cyclopropane]-2-yl)-N-isoquinolin-6-ylacetamide] | < 10 | 
